Source: US20210276987A1, “PHARMACEUTICAL AGENTS FOR USE IN SMOKING AND TOBACCO CESSATION” (Washington State University, priority 2018, published 2021)

Columns and labels:
[1] = target: UGT2B17 (Homo sapiens, UniProt O75795); conditions: Table 10
[2] = target: CYP2C9 (Homo sapiens, UniProt P11712); test: CYP2C9 inhibition assay, human liver microsomes, diclofenac probe (cocktail); conditions: Table 6
[3] = target: UGT2B4 (Homo sapiens, UniProt P06133); conditions: Table 10
[4] = tested on: at least two (not named) of CYPs 1A2, 2B6, 2C8, 2C9, 2C19, 2D6, 2E1 and 3A4, relative to CYP2A6; test: in vitro; conditions: human
[5] = target: T1, CYP2A6 (Homo sapiens, UniProt P11509); test: biochemical; conditions: IC50 against CYP2A6; human liver microsomes
T1 sequence (P11509 1-494): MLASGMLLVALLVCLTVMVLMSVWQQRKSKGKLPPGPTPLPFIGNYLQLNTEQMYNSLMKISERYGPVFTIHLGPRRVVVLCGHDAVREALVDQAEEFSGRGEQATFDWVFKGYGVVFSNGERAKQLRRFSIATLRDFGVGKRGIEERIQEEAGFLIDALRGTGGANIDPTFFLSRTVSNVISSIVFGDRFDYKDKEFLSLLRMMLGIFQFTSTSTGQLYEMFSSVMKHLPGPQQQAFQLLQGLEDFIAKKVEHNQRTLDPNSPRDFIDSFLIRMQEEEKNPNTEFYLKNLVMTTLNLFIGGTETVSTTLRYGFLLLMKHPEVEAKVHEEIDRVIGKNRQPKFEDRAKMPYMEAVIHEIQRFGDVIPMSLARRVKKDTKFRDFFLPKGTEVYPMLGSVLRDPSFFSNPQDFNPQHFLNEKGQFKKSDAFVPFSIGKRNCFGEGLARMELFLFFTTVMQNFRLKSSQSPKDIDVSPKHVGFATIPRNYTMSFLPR

[6] = target: UGT2B7 (Homo sapiens, UniProt P16662); conditions: Table 10
[7] = target: T2, CYP1A2 (Homo sapiens, UniProt P05177); test: CYP1A2 inhibition assay, human liver microsomes, phenacetin probe (cocktail); conditions: Table 6
T2 sequence (P05177 1-516): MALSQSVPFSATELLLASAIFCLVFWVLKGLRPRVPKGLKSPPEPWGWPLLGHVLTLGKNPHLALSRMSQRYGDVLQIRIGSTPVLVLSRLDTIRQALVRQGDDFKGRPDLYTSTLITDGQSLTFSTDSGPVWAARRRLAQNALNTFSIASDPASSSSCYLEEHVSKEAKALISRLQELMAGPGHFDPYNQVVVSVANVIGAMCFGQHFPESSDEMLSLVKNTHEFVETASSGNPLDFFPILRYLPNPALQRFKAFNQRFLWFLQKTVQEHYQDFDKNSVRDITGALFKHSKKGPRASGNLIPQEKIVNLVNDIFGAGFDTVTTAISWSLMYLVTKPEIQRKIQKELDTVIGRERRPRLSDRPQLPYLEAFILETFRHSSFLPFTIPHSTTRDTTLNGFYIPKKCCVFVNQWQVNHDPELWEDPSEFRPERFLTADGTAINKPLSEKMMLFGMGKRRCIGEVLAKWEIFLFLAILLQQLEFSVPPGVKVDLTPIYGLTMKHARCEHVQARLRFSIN

[8] = target: UGT2B15 (Homo sapiens, UniProt P54855); conditions: Table 10
[9] = target: T3, CYP2B6 (Homo sapiens, UniProt P20813); conditions: Table 6
T3 sequence (P20813 1-491): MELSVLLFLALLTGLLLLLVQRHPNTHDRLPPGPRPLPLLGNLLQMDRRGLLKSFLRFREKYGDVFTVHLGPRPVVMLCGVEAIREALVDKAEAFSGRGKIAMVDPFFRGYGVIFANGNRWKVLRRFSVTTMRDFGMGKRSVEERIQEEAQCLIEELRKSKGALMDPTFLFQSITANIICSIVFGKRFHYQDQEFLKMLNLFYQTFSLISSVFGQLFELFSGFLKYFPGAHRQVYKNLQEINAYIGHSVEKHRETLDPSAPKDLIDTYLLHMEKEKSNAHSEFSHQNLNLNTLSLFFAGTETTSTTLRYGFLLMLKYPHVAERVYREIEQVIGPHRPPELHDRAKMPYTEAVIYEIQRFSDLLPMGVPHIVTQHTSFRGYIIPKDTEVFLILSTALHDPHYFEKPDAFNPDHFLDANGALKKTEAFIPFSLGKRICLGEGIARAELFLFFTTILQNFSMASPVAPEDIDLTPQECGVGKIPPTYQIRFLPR

[10] = target: UGT1A1 (Homo sapiens, UniProt P22309); conditions: Table 10
[11] = target: CYP2D6 (Homo sapiens, UniProt P10635); test: CYP2D6 inhibition assay, human liver microsomes, dextromethorphan probe (cocktail); conditions: Table 6
CYP2D6, sequence (P10635 whole entry): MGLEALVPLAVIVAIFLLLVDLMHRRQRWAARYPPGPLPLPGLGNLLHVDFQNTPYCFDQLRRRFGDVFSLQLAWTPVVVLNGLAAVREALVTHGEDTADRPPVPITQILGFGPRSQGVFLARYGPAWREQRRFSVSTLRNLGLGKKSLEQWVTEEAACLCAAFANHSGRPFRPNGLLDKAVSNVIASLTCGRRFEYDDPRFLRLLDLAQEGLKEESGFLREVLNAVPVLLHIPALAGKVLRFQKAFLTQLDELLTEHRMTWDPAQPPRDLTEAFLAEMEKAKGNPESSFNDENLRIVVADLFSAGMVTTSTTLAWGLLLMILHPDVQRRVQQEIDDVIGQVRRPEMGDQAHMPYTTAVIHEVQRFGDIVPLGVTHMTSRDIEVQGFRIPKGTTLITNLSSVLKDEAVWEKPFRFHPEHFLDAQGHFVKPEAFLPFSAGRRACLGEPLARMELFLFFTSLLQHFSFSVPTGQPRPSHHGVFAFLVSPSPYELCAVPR

UGT2B17, sequence (O75795 24-530): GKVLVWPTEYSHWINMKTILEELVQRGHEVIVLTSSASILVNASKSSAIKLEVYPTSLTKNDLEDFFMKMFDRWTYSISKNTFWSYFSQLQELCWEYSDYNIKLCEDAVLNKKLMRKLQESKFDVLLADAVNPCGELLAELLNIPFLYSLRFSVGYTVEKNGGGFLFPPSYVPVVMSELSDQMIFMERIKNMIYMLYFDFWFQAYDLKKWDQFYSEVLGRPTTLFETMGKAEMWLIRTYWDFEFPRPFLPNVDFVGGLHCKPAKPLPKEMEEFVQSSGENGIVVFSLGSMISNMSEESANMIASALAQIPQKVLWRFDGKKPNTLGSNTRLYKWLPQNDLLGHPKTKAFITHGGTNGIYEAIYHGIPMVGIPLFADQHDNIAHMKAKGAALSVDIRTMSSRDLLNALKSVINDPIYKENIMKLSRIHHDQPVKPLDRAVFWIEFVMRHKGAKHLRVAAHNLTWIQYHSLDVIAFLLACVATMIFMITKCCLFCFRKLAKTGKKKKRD
UGT2B4, sequence (P06133 24-528): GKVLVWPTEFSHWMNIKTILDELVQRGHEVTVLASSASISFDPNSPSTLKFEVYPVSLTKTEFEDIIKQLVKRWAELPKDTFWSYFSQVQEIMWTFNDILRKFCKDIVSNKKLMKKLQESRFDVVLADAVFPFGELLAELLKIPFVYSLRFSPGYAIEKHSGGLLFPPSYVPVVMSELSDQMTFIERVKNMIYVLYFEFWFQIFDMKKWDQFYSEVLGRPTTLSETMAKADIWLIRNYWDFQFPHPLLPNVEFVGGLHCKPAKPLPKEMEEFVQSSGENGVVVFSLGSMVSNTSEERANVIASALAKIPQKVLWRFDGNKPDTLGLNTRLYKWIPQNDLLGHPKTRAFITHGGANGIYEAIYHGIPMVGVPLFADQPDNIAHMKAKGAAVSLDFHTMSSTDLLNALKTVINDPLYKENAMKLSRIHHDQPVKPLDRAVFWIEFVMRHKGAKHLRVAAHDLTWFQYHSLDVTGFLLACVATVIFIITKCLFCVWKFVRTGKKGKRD
CYP2C9, sequence (P11712 whole entry): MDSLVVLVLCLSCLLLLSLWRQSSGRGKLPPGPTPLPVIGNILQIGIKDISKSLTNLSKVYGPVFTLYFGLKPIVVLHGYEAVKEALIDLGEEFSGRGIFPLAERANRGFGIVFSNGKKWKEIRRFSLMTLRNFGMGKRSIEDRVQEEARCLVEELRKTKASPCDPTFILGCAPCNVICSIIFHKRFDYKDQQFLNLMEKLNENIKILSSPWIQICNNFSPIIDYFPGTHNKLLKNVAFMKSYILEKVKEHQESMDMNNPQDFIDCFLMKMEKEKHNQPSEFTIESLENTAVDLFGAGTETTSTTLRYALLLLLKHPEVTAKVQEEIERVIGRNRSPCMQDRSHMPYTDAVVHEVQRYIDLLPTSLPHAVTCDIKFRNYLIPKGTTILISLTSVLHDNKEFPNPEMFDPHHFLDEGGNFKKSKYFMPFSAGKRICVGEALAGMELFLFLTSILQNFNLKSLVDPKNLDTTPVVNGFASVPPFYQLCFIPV
UGT2B7, sequence (P16662 24-529): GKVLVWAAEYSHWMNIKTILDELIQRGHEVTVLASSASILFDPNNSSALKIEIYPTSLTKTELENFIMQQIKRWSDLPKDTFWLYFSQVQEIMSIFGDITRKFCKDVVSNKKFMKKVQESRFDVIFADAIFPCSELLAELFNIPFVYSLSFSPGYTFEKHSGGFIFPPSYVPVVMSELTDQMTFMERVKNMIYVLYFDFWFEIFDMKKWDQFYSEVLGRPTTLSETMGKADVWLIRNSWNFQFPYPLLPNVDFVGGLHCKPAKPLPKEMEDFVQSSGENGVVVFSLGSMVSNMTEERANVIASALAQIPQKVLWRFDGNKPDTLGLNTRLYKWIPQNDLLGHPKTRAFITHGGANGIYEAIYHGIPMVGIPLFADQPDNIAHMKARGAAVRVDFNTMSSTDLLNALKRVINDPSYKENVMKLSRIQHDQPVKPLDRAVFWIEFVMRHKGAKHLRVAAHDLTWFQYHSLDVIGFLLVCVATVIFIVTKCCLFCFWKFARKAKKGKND
UGT1A1, sequence (P22309 26-533): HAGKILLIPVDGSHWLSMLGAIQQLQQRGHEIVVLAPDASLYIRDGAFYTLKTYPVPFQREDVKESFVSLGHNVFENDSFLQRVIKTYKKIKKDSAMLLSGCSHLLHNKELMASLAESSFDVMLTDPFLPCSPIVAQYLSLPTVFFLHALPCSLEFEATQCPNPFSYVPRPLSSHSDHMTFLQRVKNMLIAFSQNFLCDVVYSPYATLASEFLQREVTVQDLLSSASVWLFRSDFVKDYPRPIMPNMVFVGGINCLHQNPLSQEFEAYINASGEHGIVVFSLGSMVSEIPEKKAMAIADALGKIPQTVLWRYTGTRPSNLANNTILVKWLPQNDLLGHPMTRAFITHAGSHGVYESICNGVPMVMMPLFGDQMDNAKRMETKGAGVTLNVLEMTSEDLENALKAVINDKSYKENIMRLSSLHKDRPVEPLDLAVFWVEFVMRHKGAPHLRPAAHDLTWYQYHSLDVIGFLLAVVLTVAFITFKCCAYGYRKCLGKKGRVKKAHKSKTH
UGT2B15, sequence (P54855 24-530): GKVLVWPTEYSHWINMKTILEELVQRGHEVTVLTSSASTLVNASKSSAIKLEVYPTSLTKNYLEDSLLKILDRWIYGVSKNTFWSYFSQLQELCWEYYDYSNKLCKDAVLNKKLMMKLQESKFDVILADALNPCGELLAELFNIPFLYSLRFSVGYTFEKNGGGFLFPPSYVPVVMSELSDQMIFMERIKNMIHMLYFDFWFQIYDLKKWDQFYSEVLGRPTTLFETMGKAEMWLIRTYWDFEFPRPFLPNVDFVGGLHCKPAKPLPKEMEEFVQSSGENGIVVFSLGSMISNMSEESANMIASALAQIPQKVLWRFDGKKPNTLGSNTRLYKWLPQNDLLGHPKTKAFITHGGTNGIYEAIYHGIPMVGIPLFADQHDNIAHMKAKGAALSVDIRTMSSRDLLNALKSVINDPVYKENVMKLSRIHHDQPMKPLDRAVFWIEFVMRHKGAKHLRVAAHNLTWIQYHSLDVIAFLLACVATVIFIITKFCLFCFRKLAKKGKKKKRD

COc1ccncc1C#CCN [Compound K, 3-(4-methoxypyridin-3-yl)prop-2-yn-1-amine]
IC50 ratio UGT2B17/UGT2B10 [1]: 26 | IC50 ratio CYP2C9/CYP2A6 [2]: 8.2 | IC50 ratio UGT2B4/UGT2B10 [3]: 3.5 | selectivity ratio at 15 min [4]: < 5 | IC50 [5]: < 10 µM | IC50 ratio UGT2B7/UGT2B10 [6]: 13 | IC50 ratio CYP1A2/CYP2A6 [7]: 7.4 | IC50 ratio UGT2B15/UGT2B10 [8]: 30 | IC50 ratio CYP2B6/CYP2A6 [9]: 3.2 | IC50 ratio UGT1A1/UGT2B10 [10]: 4 | IC50 ratio CYP2D6/CYP2A6 [11]: >15
